# Data reported in ChEMBL document CHEMBL4507318, “Data for DCP probe BAY-985” (2021).
# What was measured:
# [1] = tested on: Tyrosine-protein kinase ABL1 (Homo sapiens), P00519 [Y253F]
# [2] = target: G protein-coupled receptor kinase 3 (Homo sapiens) (UniProt P35626)
# [3] = target: 5'-AMP-activated protein kinase catalytic subunit alpha-2 (Homo sapiens) (UniProt P54646)
# [4] = tested on: Phosphatidylinositol 4,5-bisphosphate 3-kinase catalytic subunit alpha isoform (Homo sapiens), P42336 [E545K]
# [5] = target: Muscle, skeletal receptor tyrosine-protein kinase (Homo sapiens) (UniProt O15146)
# [6] = target: Ephrin type-B receptor 4 (Homo sapiens) (UniProt P54760)
# [7] = target: Mitogen-activated protein kinase kinase kinase 20 (Homo sapiens) (UniProt Q9NYL2)
# [8] = target: Cyclin-dependent kinase 17 (Homo sapiens) (UniProt Q00537)
# Chain of Cyclin-dependent kinase 17 (Homo sapiens) (Q00537 whole entry, looked up): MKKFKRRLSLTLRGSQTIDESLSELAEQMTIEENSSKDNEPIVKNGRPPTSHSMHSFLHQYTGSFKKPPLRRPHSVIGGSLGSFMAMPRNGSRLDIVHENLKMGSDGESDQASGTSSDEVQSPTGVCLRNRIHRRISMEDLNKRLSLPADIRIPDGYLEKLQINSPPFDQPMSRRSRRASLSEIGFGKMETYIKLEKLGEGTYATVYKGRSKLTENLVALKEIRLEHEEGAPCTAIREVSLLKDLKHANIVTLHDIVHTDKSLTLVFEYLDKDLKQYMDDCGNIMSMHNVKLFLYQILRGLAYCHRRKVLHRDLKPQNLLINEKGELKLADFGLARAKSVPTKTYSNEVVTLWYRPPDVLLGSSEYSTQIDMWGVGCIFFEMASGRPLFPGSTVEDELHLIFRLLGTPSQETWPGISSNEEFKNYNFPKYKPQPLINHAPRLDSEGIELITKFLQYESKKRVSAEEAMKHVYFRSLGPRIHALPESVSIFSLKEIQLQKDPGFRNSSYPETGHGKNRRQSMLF
# [9] = target: Phosphatidylinositol 4-phosphate 5-kinase type-1 alpha (Homo sapiens) (UniProt Q99755)
# [10] = target: Ephrin type-A receptor 6 (Homo sapiens) (UniProt Q9UF33)
# [11] = target: Mitogen-activated protein kinase 13 (Homo sapiens) (UniProt O15264)
# [12] = target: Bone morphogenetic protein receptor type-2 (Homo sapiens) (UniProt Q13873)
# [13] = target: Ephrin type-B receptor 2 (Homo sapiens) (UniProt P29323)
# [14] = target: Mitogen-activated protein kinase kinase kinase 2 (Homo sapiens) (UniProt Q9Y2U5)
# [15] = target: Megakaryocyte-associated tyrosine-protein kinase (Homo sapiens) (UniProt P42679)
# [16] = target: Serine/threonine-protein kinase PAK 1 (Homo sapiens) (UniProt Q13153)
# Chain of Serine/threonine-protein kinase PAK 1 (Homo sapiens) (Q13153 whole entry): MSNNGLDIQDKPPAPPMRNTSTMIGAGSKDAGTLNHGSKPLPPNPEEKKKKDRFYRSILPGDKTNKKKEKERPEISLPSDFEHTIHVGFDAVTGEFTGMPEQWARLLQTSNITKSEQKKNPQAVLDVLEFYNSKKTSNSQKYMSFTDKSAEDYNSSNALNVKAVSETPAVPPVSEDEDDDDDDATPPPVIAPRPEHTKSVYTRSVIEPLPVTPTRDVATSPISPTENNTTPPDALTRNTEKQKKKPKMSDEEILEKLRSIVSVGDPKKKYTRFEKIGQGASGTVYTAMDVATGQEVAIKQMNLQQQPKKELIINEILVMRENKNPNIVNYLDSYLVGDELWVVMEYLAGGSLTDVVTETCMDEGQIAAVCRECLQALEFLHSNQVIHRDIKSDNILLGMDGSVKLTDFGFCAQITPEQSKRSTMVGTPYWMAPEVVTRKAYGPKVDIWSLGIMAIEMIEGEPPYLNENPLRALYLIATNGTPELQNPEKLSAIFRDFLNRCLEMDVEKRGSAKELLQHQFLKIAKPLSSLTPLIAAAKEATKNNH
# [17] = target: Mitogen-activated protein kinase kinase kinase 9 (Homo sapiens) (UniProt P80192)
# [18] = target: Mitogen-activated protein kinase kinase kinase 10 (Homo sapiens) (UniProt Q02779)
# [19] = target: Ribosomal protein S6 kinase alpha-6 (Homo sapiens) (UniProt Q9UK32)
# [20] = target: Fibroblast growth factor receptor 3 (Homo sapiens) (UniProt P22607)
# Chain of Fibroblast growth factor receptor 3 (Homo sapiens) (P22607 23-806 limits assumed): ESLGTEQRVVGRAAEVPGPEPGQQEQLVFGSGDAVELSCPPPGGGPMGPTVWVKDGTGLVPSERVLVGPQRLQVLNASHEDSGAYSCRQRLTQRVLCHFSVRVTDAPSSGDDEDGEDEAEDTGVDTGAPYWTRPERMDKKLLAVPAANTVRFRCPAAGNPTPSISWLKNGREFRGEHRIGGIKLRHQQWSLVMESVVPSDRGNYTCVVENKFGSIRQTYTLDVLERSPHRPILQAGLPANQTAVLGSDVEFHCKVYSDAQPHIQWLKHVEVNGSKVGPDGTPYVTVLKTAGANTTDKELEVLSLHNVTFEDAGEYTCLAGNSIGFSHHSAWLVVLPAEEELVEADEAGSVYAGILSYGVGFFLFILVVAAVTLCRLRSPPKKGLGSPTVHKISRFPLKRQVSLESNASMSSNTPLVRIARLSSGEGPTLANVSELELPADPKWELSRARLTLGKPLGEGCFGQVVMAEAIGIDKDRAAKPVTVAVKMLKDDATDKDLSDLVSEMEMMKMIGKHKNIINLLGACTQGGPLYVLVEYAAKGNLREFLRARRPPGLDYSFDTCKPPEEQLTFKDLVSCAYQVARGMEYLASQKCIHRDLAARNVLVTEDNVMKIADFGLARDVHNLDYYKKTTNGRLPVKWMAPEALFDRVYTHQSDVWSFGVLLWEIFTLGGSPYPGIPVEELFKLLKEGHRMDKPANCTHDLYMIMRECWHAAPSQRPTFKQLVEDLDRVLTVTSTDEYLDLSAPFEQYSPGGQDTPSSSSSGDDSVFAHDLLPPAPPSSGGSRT
# [21] = target: Calcium/calmodulin-dependent protein kinase type 1B (Homo sapiens) (UniProt Q6P2M8)
# [22] = target: Tyrosine-protein kinase BTK (Homo sapiens) (UniProt Q06187)
# [23] = target: Glycogen synthase kinase-3 alpha (Homo sapiens) (UniProt P49840)
# Chain of Glycogen synthase kinase-3 alpha (Homo sapiens) (P49840 2-483 limits assumed): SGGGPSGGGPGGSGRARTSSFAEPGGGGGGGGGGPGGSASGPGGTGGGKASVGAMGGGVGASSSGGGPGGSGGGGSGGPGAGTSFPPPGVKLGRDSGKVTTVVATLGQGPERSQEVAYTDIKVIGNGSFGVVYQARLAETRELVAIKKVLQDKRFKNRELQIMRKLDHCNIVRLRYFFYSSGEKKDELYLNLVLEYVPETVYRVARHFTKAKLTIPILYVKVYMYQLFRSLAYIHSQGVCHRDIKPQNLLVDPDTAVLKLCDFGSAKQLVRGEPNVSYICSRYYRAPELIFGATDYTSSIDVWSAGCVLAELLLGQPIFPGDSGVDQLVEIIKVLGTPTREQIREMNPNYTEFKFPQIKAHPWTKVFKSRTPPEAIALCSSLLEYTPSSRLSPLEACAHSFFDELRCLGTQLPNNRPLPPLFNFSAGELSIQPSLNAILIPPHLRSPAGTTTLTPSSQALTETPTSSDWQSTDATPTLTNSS
# [24] = target: cAMP-dependent protein kinase catalytic subunit beta (Homo sapiens) (UniProt P22694)
# [25] = target: Protein kinase C epsilon type (Homo sapiens) (UniProt Q02156)
# [26] = target: Cyclin-dependent kinase 15 (Homo sapiens) (UniProt Q96Q40)
# [27] = target: Phosphatidylinositol 4,5-bisphosphate 3-kinase catalytic subunit beta isoform (Homo sapiens) (UniProt P42338)
# [28] = target: Serine/threonine-protein kinase Sgk3 (Homo sapiens) (UniProt Q96BR1)
# [29] = target: Serine/threonine-protein kinase NLK (Homo sapiens) (UniProt Q9UBE8)
# Chain of Serine/threonine-protein kinase NLK (Homo sapiens) (Q9UBE8 whole entry): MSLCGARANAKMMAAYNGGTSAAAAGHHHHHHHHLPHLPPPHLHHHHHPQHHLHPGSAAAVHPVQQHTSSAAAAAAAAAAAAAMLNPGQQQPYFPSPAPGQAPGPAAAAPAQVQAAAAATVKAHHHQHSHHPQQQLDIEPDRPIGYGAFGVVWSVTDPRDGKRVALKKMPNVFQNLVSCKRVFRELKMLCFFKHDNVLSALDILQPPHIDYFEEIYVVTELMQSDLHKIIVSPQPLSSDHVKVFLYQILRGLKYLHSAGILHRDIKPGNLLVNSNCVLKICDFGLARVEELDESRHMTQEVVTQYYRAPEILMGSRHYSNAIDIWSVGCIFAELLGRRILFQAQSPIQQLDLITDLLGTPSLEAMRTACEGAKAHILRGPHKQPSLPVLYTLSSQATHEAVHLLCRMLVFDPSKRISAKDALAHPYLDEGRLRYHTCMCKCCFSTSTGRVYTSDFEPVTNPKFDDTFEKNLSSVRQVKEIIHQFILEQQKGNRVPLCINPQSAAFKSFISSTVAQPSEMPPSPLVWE
# [30] = target: Serine/threonine-protein kinase haspin (Homo sapiens) (UniProt Q8TF76)
# Chain of Serine/threonine-protein kinase haspin (Homo sapiens) (Q8TF76 whole entry): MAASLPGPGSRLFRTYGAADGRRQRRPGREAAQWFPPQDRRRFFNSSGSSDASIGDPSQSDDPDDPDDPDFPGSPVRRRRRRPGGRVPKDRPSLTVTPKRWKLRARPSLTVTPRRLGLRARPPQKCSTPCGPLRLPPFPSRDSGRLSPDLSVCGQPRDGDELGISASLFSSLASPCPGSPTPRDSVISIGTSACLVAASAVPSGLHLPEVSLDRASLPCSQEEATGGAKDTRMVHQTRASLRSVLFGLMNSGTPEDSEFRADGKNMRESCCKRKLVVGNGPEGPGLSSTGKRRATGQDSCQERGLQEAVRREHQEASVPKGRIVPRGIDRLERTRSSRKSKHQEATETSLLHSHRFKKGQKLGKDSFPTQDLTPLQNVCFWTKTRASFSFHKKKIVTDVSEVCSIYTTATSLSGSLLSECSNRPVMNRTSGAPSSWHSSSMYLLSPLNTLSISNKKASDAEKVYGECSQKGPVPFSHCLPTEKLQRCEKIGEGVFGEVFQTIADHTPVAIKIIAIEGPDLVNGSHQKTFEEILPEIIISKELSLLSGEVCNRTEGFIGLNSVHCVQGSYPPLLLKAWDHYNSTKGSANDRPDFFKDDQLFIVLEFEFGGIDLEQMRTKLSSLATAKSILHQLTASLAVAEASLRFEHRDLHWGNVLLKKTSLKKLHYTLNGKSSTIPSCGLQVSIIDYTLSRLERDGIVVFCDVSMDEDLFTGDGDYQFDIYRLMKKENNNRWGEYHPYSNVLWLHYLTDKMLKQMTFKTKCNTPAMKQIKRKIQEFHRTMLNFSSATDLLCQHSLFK
# [31] = target: Serine/threonine-protein kinase Nek3 (Homo sapiens) (UniProt P51956)
# [32] = target: Hormonally up-regulated neu tumor-associated kinase (Homo sapiens) (UniProt P57058)
# [33] = target: Muscarinic acetylcholine receptor M2 (Homo sapiens) (UniProt P08172); details: Compound concentration 10.0 uM
# [34] = target: Mitogen-activated protein kinase kinase kinase 7 (Homo sapiens) (UniProt O43318)
# [35] = target: Dual specificity mitogen-activated protein kinase kinase 6 (Homo sapiens) (UniProt P52564)
# Chain of Dual specificity mitogen-activated protein kinase kinase 6 (Homo sapiens) (P52564 whole entry): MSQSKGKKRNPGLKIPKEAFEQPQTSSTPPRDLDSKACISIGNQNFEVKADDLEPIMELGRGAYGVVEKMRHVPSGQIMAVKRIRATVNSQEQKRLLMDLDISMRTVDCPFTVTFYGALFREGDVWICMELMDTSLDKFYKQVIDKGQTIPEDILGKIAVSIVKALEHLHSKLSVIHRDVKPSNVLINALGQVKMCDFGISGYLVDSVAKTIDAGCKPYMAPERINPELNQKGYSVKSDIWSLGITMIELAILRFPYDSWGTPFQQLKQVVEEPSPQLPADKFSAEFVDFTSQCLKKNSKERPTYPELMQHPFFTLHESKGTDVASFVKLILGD
# [36] = target: Serine/threonine-protein kinase Nek10 (Homo sapiens) (UniProt Q6ZWH5)
# [37] = target: Cyclin-dependent kinase 11B (Homo sapiens) (UniProt P21127)
# [38] = target: Serine/threonine-protein kinase MAK (Homo sapiens) (UniProt P20794)
# [39] = target: Tyrosine-protein kinase FRK (Homo sapiens) (UniProt P42685)
# [40] = target: Proto-oncogene tyrosine-protein kinase Src (Homo sapiens) (UniProt P12931)
# Chain of Proto-oncogene tyrosine-protein kinase Src (Homo sapiens) (P12931 2-536 limits assumed): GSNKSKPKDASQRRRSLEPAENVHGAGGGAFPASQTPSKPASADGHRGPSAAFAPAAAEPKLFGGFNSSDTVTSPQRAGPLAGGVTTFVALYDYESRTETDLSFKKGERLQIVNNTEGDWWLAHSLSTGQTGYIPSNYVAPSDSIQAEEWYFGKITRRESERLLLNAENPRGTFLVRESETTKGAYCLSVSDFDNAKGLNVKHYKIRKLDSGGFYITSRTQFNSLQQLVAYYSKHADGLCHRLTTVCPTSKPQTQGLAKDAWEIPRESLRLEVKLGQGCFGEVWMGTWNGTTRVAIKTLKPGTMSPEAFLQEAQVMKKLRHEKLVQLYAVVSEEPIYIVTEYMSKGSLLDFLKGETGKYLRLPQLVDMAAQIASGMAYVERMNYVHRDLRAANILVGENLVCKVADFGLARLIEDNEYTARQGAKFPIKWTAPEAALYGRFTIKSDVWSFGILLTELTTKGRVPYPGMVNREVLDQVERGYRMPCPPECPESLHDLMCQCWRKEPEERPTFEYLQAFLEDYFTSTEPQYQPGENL
# [41] = target: Alpha-2C adrenergic receptor (Homo sapiens) (UniProt P18825); details: Compound concentration 10.0 uM
# Chain of Alpha-2C adrenergic receptor (Homo sapiens) (P18825 whole entry): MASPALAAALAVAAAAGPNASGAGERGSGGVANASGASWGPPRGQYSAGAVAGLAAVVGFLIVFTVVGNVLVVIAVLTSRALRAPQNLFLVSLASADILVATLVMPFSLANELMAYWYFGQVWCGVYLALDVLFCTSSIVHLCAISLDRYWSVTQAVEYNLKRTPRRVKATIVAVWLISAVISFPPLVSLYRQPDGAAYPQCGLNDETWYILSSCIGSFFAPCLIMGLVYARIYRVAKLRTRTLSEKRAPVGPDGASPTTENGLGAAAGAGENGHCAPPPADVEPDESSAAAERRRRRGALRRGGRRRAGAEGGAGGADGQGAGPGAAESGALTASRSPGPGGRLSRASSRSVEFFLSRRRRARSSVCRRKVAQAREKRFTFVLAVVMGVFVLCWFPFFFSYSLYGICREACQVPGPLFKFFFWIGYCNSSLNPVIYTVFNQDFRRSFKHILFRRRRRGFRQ
# [42] = target: Death-associated protein kinase 1 (Homo sapiens) (UniProt P53355)
# [43] = target: Calcium/calmodulin-dependent protein kinase type IV (Homo sapiens) (UniProt Q16566)
# [44] = tested on: Mast/stem cell growth factor receptor Kit (Homo sapiens), P10721 [D816V]
# [45] = target: Serine/threonine-protein kinase D2 (Homo sapiens) (UniProt Q9BZL6)
# [46] = Compound concentration 1000.0 nM
# [47] = Compound concentration 100.0 nM
compound,measurement,setting,value
CN(C)c1ncnc(-c2ccc3nc(Nc4cc(CN5CCN(C(=O)CC(F)(F)F)CC5)ccn4)[nH]c3c2)c1Cl [BAY-440],residual activity,[1]; [46],37%
same,residual activity,[2]; [46],78%
same,residual activity,[3]; [46],100%
same,residual activity,[4]; [46],76%
same,residual activity,[5]; [46],100%
same,residual activity,[6]; [46],100%
same,residual activity,[7]; [46],65%
same,residual activity,[8]; [46],100%
same,residual activity,[9]; [46],96%
same,residual activity,[10]; [46],100%
same,residual activity,[11]; [46],100%
same,residual activity,[12]; [46],61%
same,residual activity,[13]; [46],100%
same,residual activity,[14]; [46],78%
same,residual activity,[15]; [46],69%
same,residual activity,[16]; [46],100%
same,residual activity,[17]; [46],90%
same,residual activity,[18]; [46],100%
same,residual activity,[19]; [46],81%
same,residual activity,[20]; [46],100%
same,residual activity,[21]; [46],72%
same,residual activity,[22]; [46],80%
same,residual activity,[23]; [46],75%
same,residual activity,[24]; [46],76%
same,residual activity,[25]; [46],100%
same,residual activity,[26]; [46],100%
same,residual activity,[27]; [46],82%
same,residual activity,[28]; [46],72%
same,residual activity,[29]; [46],88%
same,residual activity,[30]; [46],100%
same,residual activity,[31]; [46],69%
same,residual activity,[32]; [46],80%
same,inhibition,[33],35.1%
same,residual activity,[34]; [46],74%
same,residual activity,[35]; [46],92%
same,residual activity,[36]; [46],72%
same,residual activity,[37]; [46],100%
same,residual activity,[38]; [46],100%
same,residual activity,[39]; [46],85%
same,residual activity,[40]; [46],100%
same,inhibition,[41],7.09%
same,residual activity,[42]; [46],100%
same,residual activity,[43]; [46],89%
same,residual activity,[44]; [46],97%
same,residual activity,[45]; [46],84%
C[C@H](c1ccnc(Nc2nc3ccc(-c4cc(N(C)C)ncn4)cc3[nH]2)c1)N1CCN(C(=O)CC(F)(F)F)CC1 [BAY-985],residual activity,[1]; [47],91%
same,residual activity,[2]; [47],100%
same,residual activity,[3]; [47],100%
same,residual activity,[4]; [47],100%
same,residual activity,[5]; [47],97%
same,residual activity,[6]; [47],100%
same,residual activity,[7]; [47],98%
same,residual activity,[8]; [47],100%
same,residual activity,[9]; [47],100%
same,residual activity,[10]; [47],93%
same,residual activity,[11]; [47],80%
same,residual activity,[12]; [47],100%
same,residual activity,[13]; [47],93%
same,residual activity,[14]; [47],100%
same,residual activity,[15]; [47],95%
same,residual activity,[16]; [47],77%
same,residual activity,[17]; [47],100%
same,residual activity,[18]; [47],100%
same,residual activity,[19]; [47],56%
same,residual activity,[20]; [47],100%
same,residual activity,[21]; [47],100%
same,residual activity,[22]; [47],100%
same,residual activity,[23]; [47],100%
same,residual activity,[24]; [47],100%
same,residual activity,[25]; [47],96%
same,residual activity,[26]; [47],100%
same,residual activity,[27]; [47],100%
same,residual activity,[28]; [47],100%
same,residual activity,[29]; [47],88%
same,residual activity,[30]; [47],100%
same,residual activity,[31]; [47],100%
same,residual activity,[32]; [47],95%
same,inhibition,[33],32.9%
same,residual activity,[34]; [47],85%
same,residual activity,[35]; [47],96%
same,residual activity,[36]; [47],100%
same,residual activity,[37]; [47],100%
same,residual activity,[38]; [47],100%
same,residual activity,[39]; [47],92%
same,residual activity,[40]; [47],100%
same,inhibition,[41],9.82%
same,residual activity,[42]; [47],93%
same,residual activity,[43]; [47],100%
same,residual activity,[44]; [47],96%
same,residual activity,[45]; [47],100%
